Experimental findings from ChEMBL document CHEMBL2429832, “N-substituted 8-aminopentacyclo[5.4.0.0(2,6).0(3,10).0(5,9)]undecanes as σ receptor ligands with potential neuroprotective effects” (Bioorg Med Chem, 2013) are described below.

For test [1], the target named is 5-hydroxytryptamine receptor 1B (Homo sapiens, UniProt P28222). Put plainly: Inhibition of 5-HT1B receptor (unknown origin) at 10 uM by PDSP assay relative to control.
For test [2], the target named is 5-hydroxytryptamine receptor 1D (Homo sapiens) (UniProt P28221). Nature of the test: Inhibition of 5-HT1D receptor (unknown origin) at 10 uM by PDSP assay relative to control.
Chain of 5-hydroxytryptamine receptor 1D (Homo sapiens) (P28221 whole entry): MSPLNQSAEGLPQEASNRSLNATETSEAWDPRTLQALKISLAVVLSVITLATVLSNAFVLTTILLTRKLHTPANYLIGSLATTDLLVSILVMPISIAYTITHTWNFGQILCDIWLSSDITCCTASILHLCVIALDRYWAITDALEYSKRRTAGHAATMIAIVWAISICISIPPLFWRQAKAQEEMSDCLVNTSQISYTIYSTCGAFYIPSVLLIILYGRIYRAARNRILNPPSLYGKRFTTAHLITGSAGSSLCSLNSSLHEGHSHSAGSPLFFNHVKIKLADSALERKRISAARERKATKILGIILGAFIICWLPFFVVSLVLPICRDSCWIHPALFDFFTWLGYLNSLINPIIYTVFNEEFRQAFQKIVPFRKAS
Test [3] has as its target T1, 5-hydroxytryptamine receptor 1A (Homo sapiens) (UniProt P08908).
T1 sequence (whole entry): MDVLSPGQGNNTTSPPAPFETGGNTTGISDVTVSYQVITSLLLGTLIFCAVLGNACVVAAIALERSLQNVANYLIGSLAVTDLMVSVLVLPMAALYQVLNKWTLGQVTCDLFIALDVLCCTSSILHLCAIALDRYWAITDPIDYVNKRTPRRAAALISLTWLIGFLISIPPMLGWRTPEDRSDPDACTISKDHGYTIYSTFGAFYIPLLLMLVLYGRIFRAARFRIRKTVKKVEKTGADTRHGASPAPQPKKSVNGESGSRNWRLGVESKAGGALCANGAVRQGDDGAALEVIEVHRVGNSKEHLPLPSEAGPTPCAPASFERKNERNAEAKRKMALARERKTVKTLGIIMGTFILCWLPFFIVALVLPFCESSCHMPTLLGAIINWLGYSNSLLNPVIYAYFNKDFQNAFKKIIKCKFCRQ
Put plainly: Inhibition of 5-HT1A receptor (unknown origin) at 10 uM by PDSP assay relative to control.

Test [4] addresses T2, D(4) dopamine receptor (Homo sapiens) (UniProt P21917).
T2 sequence (whole entry): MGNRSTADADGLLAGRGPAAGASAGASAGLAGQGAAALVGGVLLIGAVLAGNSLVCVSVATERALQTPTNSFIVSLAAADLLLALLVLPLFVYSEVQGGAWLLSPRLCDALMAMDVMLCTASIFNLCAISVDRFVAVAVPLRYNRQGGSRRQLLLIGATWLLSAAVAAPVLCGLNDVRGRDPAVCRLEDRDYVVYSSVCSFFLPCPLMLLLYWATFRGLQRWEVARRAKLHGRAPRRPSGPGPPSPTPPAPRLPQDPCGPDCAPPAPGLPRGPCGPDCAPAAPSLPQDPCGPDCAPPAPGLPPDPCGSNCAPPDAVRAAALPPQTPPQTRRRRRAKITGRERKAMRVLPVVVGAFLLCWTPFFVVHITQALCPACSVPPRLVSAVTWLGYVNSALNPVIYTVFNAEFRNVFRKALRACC
Nature of the test: Inhibition of dopamine D4 receptor (unknown origin) at 10 uM by PDSP assay relative to control.

Test [5] deals with Beta-3 adrenergic receptor (Homo sapiens) (UniProt P13945). Put plainly: Inhibition of adrenergic beta3 receptor (unknown origin) at 10 uM by PDSP assay relative to control.
Chain of Beta-3 adrenergic receptor (Homo sapiens) (P13945 whole entry, looked up): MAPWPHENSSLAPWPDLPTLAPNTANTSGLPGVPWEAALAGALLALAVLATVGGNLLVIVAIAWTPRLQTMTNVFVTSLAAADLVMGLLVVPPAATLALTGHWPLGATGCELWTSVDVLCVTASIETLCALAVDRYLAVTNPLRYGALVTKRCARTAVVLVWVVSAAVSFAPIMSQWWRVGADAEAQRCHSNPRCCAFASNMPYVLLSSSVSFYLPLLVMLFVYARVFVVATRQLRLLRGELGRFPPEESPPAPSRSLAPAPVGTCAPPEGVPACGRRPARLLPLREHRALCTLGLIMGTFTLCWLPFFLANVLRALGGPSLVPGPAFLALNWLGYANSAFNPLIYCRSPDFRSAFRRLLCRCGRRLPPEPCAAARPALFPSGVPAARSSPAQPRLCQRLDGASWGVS
Test [6] deals with Beta-2 adrenergic receptor (Homo sapiens) (UniProt P07550). Put plainly: Inhibition of adrenergic beta2 receptor (unknown origin) at 10 uM by PDSP assay relative to control.
Chain of Beta-2 adrenergic receptor (Homo sapiens) (P07550 whole entry, looked up): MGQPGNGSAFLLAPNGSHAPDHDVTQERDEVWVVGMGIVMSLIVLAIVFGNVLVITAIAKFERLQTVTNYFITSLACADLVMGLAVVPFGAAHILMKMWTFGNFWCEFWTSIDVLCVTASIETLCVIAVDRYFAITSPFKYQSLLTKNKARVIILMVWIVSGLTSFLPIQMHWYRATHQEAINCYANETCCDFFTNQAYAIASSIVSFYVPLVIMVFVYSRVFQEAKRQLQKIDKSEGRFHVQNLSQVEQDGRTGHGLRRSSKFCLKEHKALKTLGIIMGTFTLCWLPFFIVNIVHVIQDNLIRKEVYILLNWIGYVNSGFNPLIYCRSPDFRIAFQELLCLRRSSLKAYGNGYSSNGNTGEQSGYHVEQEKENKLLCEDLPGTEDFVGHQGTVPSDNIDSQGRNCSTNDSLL
Test [7] concerns the target Beta-1 adrenergic receptor (Homo sapiens) (UniProt P08588). Nature of the test: Inhibition of adrenergic beta1 receptor (unknown origin) at 10 uM by PDSP assay relative to control.
The target of test [8] is T3, Alpha-1D adrenergic receptor (Homo sapiens) (UniProt P25100).
T3 sequence (whole entry): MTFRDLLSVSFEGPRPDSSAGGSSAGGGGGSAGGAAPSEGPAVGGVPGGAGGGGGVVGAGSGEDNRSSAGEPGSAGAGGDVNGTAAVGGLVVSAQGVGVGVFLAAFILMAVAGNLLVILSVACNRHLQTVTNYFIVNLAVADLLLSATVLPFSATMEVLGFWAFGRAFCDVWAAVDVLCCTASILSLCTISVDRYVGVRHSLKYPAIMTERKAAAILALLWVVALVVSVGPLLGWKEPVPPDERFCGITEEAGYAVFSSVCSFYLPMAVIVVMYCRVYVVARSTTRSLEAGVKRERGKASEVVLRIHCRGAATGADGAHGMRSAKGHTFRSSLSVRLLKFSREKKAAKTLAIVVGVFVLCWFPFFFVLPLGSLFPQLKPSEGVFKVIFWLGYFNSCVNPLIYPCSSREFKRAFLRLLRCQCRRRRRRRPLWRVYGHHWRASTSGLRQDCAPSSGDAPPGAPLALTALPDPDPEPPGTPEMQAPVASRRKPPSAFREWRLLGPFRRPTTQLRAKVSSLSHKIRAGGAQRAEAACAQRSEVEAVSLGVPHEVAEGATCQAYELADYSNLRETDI
Put plainly: Inhibition of adrenergic alpha1D receptor (unknown origin) at 10 uM by PDSP assay relative to control.

For test [9], the target named is Sodium-dependent noradrenaline transporter (Homo sapiens, UniProt P23975). Put plainly: Displacement of [3H]-nisoxetine from human NET expressed in HEK cell membranes at 10 uM relative to control. As to conditions: HEK293. (Loss of bound radioactivity is the signal in a displacement assay; it reports binding, not function.)
Chain of Sodium-dependent noradrenaline transporter (P23975 whole entry): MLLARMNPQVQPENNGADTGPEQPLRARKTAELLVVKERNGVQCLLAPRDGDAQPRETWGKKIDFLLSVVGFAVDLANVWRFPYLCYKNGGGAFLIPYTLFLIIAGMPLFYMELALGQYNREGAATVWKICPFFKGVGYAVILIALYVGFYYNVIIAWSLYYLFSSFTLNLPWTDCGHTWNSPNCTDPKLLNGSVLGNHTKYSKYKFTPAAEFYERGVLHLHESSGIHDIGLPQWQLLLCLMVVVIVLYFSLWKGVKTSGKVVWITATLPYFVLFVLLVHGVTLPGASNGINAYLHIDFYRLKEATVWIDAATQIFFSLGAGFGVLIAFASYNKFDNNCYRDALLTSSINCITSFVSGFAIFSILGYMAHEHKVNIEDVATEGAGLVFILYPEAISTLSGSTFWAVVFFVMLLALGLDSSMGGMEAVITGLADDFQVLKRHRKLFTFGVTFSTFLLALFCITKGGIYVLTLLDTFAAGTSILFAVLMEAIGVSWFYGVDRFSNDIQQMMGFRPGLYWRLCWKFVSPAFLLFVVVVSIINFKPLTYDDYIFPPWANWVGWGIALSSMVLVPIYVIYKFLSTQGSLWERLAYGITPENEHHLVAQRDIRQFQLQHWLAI
Test [10] can be described thus: Displacement of [3H]-DTG from sigma-2 receptor in rat PC12 cells. The class given is cell-based. The following applies: pc-12.
Test [11] has as its target Sigma non-opioid intracellular receptor 1 (Rattus norvegicus, UniProt Q9R0C9). Nature of the test: Displacement of [3H](+)-pentazocine from sigma-1 receptor in rat brain homogenates. The class given is tissue-based.
For the next test, the target named is Mu-type opioid receptor (Homo sapiens, UniProt P35372). Nature of the test: Inhibition of mu opioid receptor (unknown origin) at 10 uM by PDSP assay relative to control.
Chain of Mu-type opioid receptor (P35372 whole entry): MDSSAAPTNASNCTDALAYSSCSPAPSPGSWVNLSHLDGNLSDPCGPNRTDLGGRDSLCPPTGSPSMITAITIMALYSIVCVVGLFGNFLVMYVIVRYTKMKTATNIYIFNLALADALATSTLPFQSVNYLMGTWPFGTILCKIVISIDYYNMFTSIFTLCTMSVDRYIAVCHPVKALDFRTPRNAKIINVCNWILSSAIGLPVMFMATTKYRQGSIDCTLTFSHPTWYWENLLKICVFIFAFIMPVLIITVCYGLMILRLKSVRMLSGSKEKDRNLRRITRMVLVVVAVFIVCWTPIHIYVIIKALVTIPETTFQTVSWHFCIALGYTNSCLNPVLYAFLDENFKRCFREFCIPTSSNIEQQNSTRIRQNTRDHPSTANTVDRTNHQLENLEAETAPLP
Test [12] has as its target 5-hydroxytryptamine receptor 7 (Homo sapiens, UniProt P34969). Nature of the test: Inhibition of 5-HT7 receptor (unknown origin) at 10 uM by PDSP assay relative to control.
In test [13] the target is 5-hydroxytryptamine receptor 6 (Homo sapiens, UniProt P50406). Nature of the test: Inhibition of 5-HT6 receptor (unknown origin) at 10 uM by PDSP assay relative to control.
Chain of 5-hydroxytryptamine receptor 6 (P50406 whole entry): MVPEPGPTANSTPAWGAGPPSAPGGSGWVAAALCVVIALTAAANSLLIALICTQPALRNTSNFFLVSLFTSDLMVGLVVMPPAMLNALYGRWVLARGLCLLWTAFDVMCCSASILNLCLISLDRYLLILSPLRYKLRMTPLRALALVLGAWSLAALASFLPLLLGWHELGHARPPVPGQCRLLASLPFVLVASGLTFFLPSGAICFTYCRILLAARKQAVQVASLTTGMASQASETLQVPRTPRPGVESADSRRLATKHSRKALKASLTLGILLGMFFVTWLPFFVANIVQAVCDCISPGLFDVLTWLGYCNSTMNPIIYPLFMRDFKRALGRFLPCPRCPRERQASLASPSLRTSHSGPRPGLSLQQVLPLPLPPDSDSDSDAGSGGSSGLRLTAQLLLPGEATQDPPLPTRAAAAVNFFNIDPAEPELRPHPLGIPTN
Test [14] deals with 5-hydroxytryptamine receptor 2B (Homo sapiens, UniProt P41595). Nature of the test: Inhibition of 5-HT2B receptor (unknown origin) at 10 uM by PDSP assay relative to control.
Chain of 5-hydroxytryptamine receptor 2B (P41595 whole entry): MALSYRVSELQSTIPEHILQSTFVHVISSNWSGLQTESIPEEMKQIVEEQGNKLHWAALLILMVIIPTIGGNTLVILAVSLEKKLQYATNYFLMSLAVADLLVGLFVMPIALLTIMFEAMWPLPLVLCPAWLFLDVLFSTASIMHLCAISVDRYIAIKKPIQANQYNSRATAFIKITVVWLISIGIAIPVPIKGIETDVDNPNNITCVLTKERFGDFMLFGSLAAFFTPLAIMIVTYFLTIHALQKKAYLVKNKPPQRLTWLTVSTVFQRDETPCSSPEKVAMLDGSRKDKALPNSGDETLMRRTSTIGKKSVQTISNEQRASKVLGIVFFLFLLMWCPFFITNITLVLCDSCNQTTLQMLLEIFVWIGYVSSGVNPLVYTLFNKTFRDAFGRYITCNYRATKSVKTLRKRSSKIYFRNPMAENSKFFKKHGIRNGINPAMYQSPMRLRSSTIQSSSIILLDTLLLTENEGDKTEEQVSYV
In test [15] the target is T4, 5-hydroxytryptamine receptor 2C (Homo sapiens) (UniProt P28335).
T4 sequence (whole entry): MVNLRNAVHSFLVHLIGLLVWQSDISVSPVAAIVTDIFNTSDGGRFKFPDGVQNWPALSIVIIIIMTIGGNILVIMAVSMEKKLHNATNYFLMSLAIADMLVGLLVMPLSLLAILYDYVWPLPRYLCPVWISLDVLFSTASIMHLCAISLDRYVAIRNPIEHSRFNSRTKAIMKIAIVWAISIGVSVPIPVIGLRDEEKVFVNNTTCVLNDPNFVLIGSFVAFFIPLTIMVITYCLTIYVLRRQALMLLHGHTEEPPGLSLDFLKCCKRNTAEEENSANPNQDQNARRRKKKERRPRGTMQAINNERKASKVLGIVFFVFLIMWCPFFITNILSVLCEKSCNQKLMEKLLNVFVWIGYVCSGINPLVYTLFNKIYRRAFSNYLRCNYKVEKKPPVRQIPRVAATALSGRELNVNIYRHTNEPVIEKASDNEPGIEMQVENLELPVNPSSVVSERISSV
Put plainly: Inhibition of 5-HT2C receptor (unknown origin) at 10 uM by PDSP assay relative to control.

The term inhibition denotes the drop in the measured response relative to a control, in per cent. A higher inhibition goes with a strong effect. Usually Ki stands for a dissociation constant, usually derived from enzyme kinetics or from competition with a known ligand.

Chain of 5-hydroxytryptamine receptor 1B (P28222 whole entry): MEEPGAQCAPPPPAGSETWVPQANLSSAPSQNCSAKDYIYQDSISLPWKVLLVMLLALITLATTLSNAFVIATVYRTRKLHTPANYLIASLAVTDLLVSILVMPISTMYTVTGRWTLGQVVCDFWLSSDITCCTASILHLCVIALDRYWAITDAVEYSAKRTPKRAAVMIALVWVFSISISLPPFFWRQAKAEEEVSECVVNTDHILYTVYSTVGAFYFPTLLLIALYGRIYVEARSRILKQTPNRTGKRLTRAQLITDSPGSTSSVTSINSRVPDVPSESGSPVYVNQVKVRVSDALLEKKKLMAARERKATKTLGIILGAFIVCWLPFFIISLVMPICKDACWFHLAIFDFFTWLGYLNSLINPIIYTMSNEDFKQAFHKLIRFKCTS
Chain of Beta-1 adrenergic receptor (Homo sapiens) (P08588 whole entry, looked up): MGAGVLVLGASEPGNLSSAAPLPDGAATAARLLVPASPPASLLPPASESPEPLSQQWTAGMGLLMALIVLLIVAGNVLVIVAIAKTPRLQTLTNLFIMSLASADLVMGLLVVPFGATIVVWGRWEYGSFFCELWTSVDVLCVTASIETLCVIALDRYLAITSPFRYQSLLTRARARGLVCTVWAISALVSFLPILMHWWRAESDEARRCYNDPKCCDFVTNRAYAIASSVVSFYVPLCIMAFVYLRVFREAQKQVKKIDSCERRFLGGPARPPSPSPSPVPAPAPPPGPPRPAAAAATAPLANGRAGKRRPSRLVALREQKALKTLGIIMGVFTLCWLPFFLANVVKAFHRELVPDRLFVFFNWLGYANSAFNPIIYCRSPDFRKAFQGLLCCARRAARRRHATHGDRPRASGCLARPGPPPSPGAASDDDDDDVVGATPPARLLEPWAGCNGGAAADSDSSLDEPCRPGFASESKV
Chain of Sigma non-opioid intracellular receptor 1 (Q9R0C9 whole entry): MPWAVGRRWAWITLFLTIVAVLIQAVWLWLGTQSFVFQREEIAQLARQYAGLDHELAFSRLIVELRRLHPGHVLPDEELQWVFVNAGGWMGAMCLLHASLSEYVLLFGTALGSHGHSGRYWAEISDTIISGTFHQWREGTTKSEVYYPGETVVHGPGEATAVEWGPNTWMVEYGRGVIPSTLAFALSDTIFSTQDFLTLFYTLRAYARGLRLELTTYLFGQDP
Chain of 5-hydroxytryptamine receptor 7 (P34969 whole entry): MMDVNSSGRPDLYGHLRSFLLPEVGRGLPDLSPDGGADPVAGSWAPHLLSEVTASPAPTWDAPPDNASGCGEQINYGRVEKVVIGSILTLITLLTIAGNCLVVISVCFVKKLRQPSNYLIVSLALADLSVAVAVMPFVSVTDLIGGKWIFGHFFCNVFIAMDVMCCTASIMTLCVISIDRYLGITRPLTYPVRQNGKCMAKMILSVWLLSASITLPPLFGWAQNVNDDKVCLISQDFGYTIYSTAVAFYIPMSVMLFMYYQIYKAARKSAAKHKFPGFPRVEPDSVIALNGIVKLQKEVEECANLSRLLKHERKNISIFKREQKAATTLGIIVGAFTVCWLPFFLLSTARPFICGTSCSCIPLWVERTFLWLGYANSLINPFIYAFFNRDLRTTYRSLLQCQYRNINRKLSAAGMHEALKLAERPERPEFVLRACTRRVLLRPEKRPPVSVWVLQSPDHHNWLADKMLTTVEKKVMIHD

Take `CN(CCc1ccccc1)[C@H]1C2C3CC4C2C(=O)C2C4C3C21` (stereo partly specified): the inhibition in test [1], in [2], in test [3], in test [4], in [5] and in [6] was below 50% throughout. Further, the inhibition (in [7]; in [8]; in test [9]; on Mu-type opioid receptor; in [12]; in test [13]) was below 50% throughout. In addition, the inhibition in [14] and in test [15] was below 50% throughout. For the same compound, the Ki is 172 nM in test [10] and 827 nM in test [11].
